US12540150B1, “Fluorogenic probe using a Mislow-Evans rearrangement for real-time imaging of hydrogen peroxide” (University of Pittsburgh—Of the Commonwealth System of …, priority 2020, dated 2026)
Several values for one entry are separate records, joined by “and”; a condition that tells them apart may be missing. Equal values may be shown once.

Assays:
[1] = Selectivity of 1: reaction with ONOO^−; settings: for Fluorescence Intensity: pH 7, 25° C., 15 min
Method: Next, it was tested whether OCl^− and ONOO^− (peroxynitrite), would react with 1. A solution of 0, 1, 10, or 22 μM ONOO— in 0.3 M NaOH (20 μL) or 1, 10, 100, or 1000 μM NaOCl in water (20 μL) was added to the wells of a black 96-well plate. A solution of 10 μM 1 in DMSO (560 μL) and 5:95 MeCN/1.2 M phosphate pH 7 buffer (4.48 mL) was made; this solution (180 μL) was transferred to each of the wells. The samples were allowed to incubate at 25° C. for 15 min before the fluorescence was measured. […] This may be attributed to trace amounts of H2O2 in the ONOO^− solution.

[2] = Selectivity of 1: reaction with NO·; settings: 15 min minus 0 min
[3] = Stability of 1 under ambient conditions by 1H NMR; type: physicochemical; settings: room temperature, in air
Text: Since organic selenides are prone to oxidation in air, the stability of 1 under ambient conditions was investigated. To study the stability of 1, the ^1H NMR spectra of 1 in DMSO-d6 were obtained at specified intervals (days 1, 7, 14, 21, 30 and 60). The solution was left at room temperature and in air throughout the entire period.
[drawing 26] were observed. […] Even so, the compound was quite resistant to oxidative decomposition up to 60 days as manifested by the presence of only less than 10% acrolein.

RAW cells = assay: Imaging of endogenous H2O2 upon ionomycin stimulation in RAW cells; type: cell-based
Text: After detecting exogenously added H2O2 in cells, the focus shifted to more biologically relevant, endogenous H2O2. It was attempted to monitor endogenous H2O2 production upon stimulation with ionomycin in RAW cells. […] In contrast, with probe 1, a significant response was observed within 30 s after the addition of ionomycin relative to the baseline fluorescence (FIG. 24B-C) and peaked at 48 s.

[4] = Selectivity of 1: reaction with tBuOOH; settings: for Fluorescence Intensity: pH 7, 25° C., 15 min
Method: 'BuOOH was also tested for reactivity with 1. A solution of 5:95 MeCN/50 mM phosphate pH 7 buffer (160 μL) was added to the wells of a black 96-well plate. 10 μM 1 in DMSO (20 μL) was added to each well. 0 mM H2O2 in water (20 μL) or 0, 10, or 100 μM tBuOOH in DMSO (20 μL) were then added to the wells.

[5] = Selectivity of 1 against various ROS and RNS (FIG. 14B); settings: O2^·−, ^1O2, ·OH, ClO^−, ONOO^−, tBuOOH, NO3^−, NO2, NO·
Method: Following the concentration dependence studies, the selectivity of 1 was assessed against O2^·−, ^1O2, ·OH, ClO^−, ONOO^−, 'BuOOH, NO3^−, NO2, and NO·. […] The production of some of these ROS required H2O2 as a reagent or generated H2O2 as a product, for which we carefully performed control experiments as detailed below. For example, a solution of 100 μM 1 in ethanol (20 μL) was added to 5:95 methanol/50 mM phosphate pH 7 buffer (140 μL). […] A control containing 100 μM 1 in ethanol (20 μL), 5:95 methanol/50 mM phosphate pH 7 buffer (160 μL), and 700 mM H2O2 (20 μL) was also generated. The solutions were allowed to incubate at 25° C. for 15 min prior to measuring fluorescence. […] Therefore, 1 is selective for H2O2 over O2^·−.

HeLa cells = assay: Imaging of exogenously added H2O2 in HeLa cells; type: cell-based; settings: 0.5 μM 1, 37° C.
Method: It was then attempted to image H2O2 within cells. HeLa cells were seeded on 35-mm glass bottom dishes (MatTek Corporation, Ashland, MA) and incubated with 0.5 μM 1 in 0.1% DMSO in DMEM (10% FBS with penicillin/streptomycin) prior to imaging. After washing with HBSS and replacing the media, H2O2 was added. The dish was inserted in a closed, thermo-controlled (37° C.) stage top incubator (Tokai Hit Co., Shizuoka-ken, Ja-pan) atop the motorized stage of an inverted Nikon TiE fluorescent microscope (Nikon Inc., Melville, NY) equipped with a 60× oil immersion optic (Nikon, CFI PlanFluor, NA 1.49) and NIS Elements Software. The sample was excited using the 470 nm line of a Lumencor diode-pumped light engine (SpectraX, Lumencor Inc., Beaverton OR). Fluorescence was detected using an ET-GFP filter set (Chroma Technology Corp) and ORCA-Flash 4.0 sCMOS camera (HAMAMATSU Corporation, Bridgewater, NJ).

[6] = Selectivity of 1: reaction with ·OH; settings: for Fluorescence: 40 min minus 0 min
Method: The reactivity of 1 with ·OH was also investigated. ·OH was generated through the reaction of FeSO4·7H2O with H2O2. A solution of 100 μM 1 in ethanol (20 μL) was added to 5:95 methanol/50 mM phosphate pH 7 buffer (140 μL). Water or 104 U/mL catalase (20 μL) was added to the mixture. FeSO4·7H2O (27.4 mg) was added to ultrapure water (2.00 mL). This solution was diluted to 20 μM, 200 μM, and 2.00 mM. H2O2 was diluted to 200 μM and 2.00 mM. Equal volumes of FeSO4·7H2O solution and H2O2 were added together, and an aliquot (20 μL) was immediately transferred to the solution containing 1. The fluorescence intensity was measured immediately and again after incubation at 25° C. for 40 min. […] The Fluorescence values in Table 8 are the fluorescence at 40 min minus the fluorescence at 0 min.

Oc1ccc2c(c1)Oc1cc(O/C=C/C[Se]c3ccccc3)ccc1[C@@]21OCc2ccccc21 [Compound 1, (S,E)-6′-((3-(Phenylselanyl)prop-1-en-1-yl)oxy)-3H-spiro[isobenzofuran-1,9′-xanthen]-3′-ol]
fluorescence change with increasing ONOO^− concentration [1]: slight increase in fluorescence intensity | Fluorescence Intensity ([1]; 100 nM ONOO^−): 23,606 and 21,961 and 20,229 | Fluorescence Intensity ([1]; 1.0 μM ONOO^−): 46,271 and 39,358 and 35,209 | Fluorescence Intensity ([1]; 2.2 μM ONOO^−−): 63,954 and 56,351 and 61,987 | Fluorescence ([2]; 0.1 μM H2O2): 9,370 and 9,525 and 9,517 | Fluorescence ([2]; 1 μM H2O2): 26,155 and 26,618 and 27,176 | Fluorescence ([2]; 10 μM H2O2): 111,008 and 106,765 and 111,053 | half-life ([3]; DMSO-d6 solution, read-out: half-life of cis-trans isomerization of the enol ether (converted)): 60 days | acrolein present (oxidative decomposition) ([3]; [D6]DMSO, up to 60 days): less than 10% | time of fluorescence peak after the addition of ionomycin (RAW cells): 48 s | time to significant response after the addition of ionomycin (RAW cells; 0.5 μM 1, ionomycin 10 μM): ≤ 30 s | fluorescence with tBuOOH [4]: did not produce fluorescence even at 10 μM | Fluorescence Intensity ([4]; 10 μM ^tBuOOH): 31,650 and 28,922 and 33,363 | Fluorescence Intensity ([4]; H2O2): 277,013 and 296,506 and 250,145 | Fluorescence Intensity ([4]; no ROS): 34,525 and 36,401 and 39,836 | reaction with other ROS and RNS relative to H2O2 [5]: little reaction was observed | time to significant increase in fluorescence after H2O2 addition (HeLa cells): ≤ 30 s | reaction with FeSO4 or ·OH [6]: neither FeSO4 nor the ·OH reacted with the probe | Fluorescence ([6]; catalase, FeSO4 0 μM, 0 μM H2O2): 31,506 and 41,340 and 38,159 | Fluorescence ([6]; catalase, FeSO4 1 μM, 0 μM H2O2): 28,688 and 24,359 and 45,310 | Fluorescence ([6]; catalase, FeSO4 1 μM, 100 μM H2O2): 38,285 and 34,591 and 26,790 | Fluorescence ([6]; catalase, FeSO4 10 μM, 0 μM H2O2): 24,822 and 33,920 and 47,376 | Fluorescence ([6]; catalase, FeSO4 10 μM, 100 μM H2O2): 32,300 and 42,724 and 50,635 | Fluorescence ([6]; catalase, FeSO4 100 μM, 0 μM H2O2): 35,828 and 18,194 and 20,321 | Fluorescence ([6]; catalase, FeSO4 100 μM, 10 μM H2O2): 20,486 and 26,765 and 15,423 | Fluorescence ([6]; catalase, FeSO4 100 μM, 100 μM H2O2): 46,232 and 46,921 and 52,666 | Fluorescence ([6]; no additive, FeSO4 0 μM, 0 μM H2O2): 50,173 and 48,124 and 44,143 | Fluorescence ([6]; no additive, FeSO4 0 μM, 10 μM H2O2): 43,929 and 46,186 and 43,989 | Fluorescence ([6]; no additive, FeSO4 0 μM, 100 μM H2O2): 85,271 and 94,742 and 95,713 | Fluorescence ([6]; no additive, FeSO4 1 μM, 0 μM H2O2): 44,775 and 42,847 and 41,775 | Fluorescence ([6]; no additive, FeSO4 1 μM, 10 μM H2O2): 49,425 and 47,262 and 44,251 | Fluorescence ([6]; no additive, FeSO4 1 μM, 100 μM H2O2): 86,594 and 103,905 and 91,684 | Fluorescence ([6]; no additive, FeSO4 10 μM, 0 μM H2O2): 43,299 and 42,365 and 40,214 | Fluorescence ([6]; no additive, FeSO4 10 μM, 10 μM H2O2): 42,933 and 40,908 and 38,283 | Fluorescence ([6]; no additive, FeSO4 10 μM, 100 μM H2O2): 91,049 and 90,712 and 94,948 | Fluorescence ([6]; no additive, FeSO4 100 μM, 0 μM H2O2): 32,709 and 41,351 and 31,615 | Fluorescence ([6]; no additive, FeSO4 100 μM, 10 μM H2O2): 56,260 and 46,281 and 43,358 | Fluorescence ([6]; no additive, FeSO4 100 μM, 100 μM H2O2): 99,384 and 99,391 and 95,778
